# Where a name gives a salt, the structure may show the parent alone.
# Legend:
# renal hypertensive rats = test: Antihypertensive action on renal hypertensive rats (invasive); type: in vivo, rat; settings: male SD renal hypertensive rats, mean blood pressure, orally 0.3 mg/kg, suspended in 0.5% carboxymethyl cellulose
# Source text: Antihypertensive action on renal hypertensive rats (invasive)
# Renal hypertensive rats were each prepared by constricting the left renal artery of a male SD rat (age: 6 weeks old, body weight: 190-220 g) with a silver clip (inner diameter: 0.017 inch) under anesthesia. Antihypertensive action was studied employing the rats whose mean blood pressure arose to 150 mmHg or higher in 4-8 weeks after the constriction of the renal artery. On the day before the test, a cannula for measure of blood pressure was inserted into the femoral artery of each of the renal hypertensive rats under anesthesia and was allowed to remain in the artery. The rats were maintained on food and water ad libitum until immediately before the test was started. The cannula so inserted was connected to a blood pressure transducer and a mean blood pressure was recorded on a polygraph. After the blood pressure became stable, the test compound which was suspended in 0.5% carboxymethyl cellulose was orally administered to each of the rats at 0.3 mg/kg. In accordance with the following equation, a decreased rate of blood pressure (%) was calculated from the blood pressure values before and after the administration of the test compound.
# angiotensin II = test: Inhibition of the angiotensin II-induced blood pressure increase in conscious normotensive rats after oral administration (invasive); type: in vivo, rat; settings: male SD rats; angiotensin II intravenously 0.1 µg/kg; test compound orally 1.0 mg/kg in 0.5% carboxymethyl cellulose
# Description: On the day before the test, a cannula for the measurement of blood pressure and another cannula for the administration of a solution of angiotensin II (AII) in physiological saline (intravenously administered at 0.1 µg/kg) were inserted into the right femoral artery and the right femoral vein of each of the male SD rats (body weight: 200-350 g), respectively, under anesthesia. The rats were maintained on food and water ad libitum until immediately before the test was started. On the testing day, the former cannula so inserted was connected to a blood pressure transducer and the mean blood pressure was recorded on a polygraph. The solution of AII in physiological saline was then intravenously administered to each of the rats to raise its blood pressure. The blood-pressure raising response was repeated several times. […] In accordance with the following equation, an inhibitory rate (%) of blood pressure increase was calculated from the blood pressure increases before and after the administration of the test compound.
# [1] = Measurement of bioavailability in rat; type: in vivo; settings: SD male rats, fasted overnight, 3 mg/kg intravenously (physiological saline) and orally (0.5% carboxymethyl cellulose), from plasma AUC by HPLC
# Description: Measurement of bioavailability in rat
# SD Male rats of 6 weeks old (5 rats a group) were fasted overnight. The test compound was then administered to each of the rats at 3 mg/kg intravenously after dissolved in physiological saline and orally after suspended in 0.5% carboxymethyl cellulose, respectively. After administration, blood was collected periodically. From the blood so collected, plasma was separated by centrifugation. The test compound in the plasma was determined by high-performance liquid chromatography and based on it, areas under concentration (AUC) in intravenous administration and oral administration were found respectively. Bioavailability (BA) of the test compound for the rats was calculated in accordance with the following equation.
Structure (SMILES),Rate of decrease in blood pressure (renal hypertensive rats; 0.3 mg/kg),Inhibition of blood pressure increase (%) (angiotensin II),Rate of decrease in blood pressure (renal hypertensive rats),BA (%) [1]
"CCc1nn(Cc2ccc(-c3ccccc3-c3nn[nH]n3)cc2)c(=NC(=O)C2=C(C(=O)O)CCC2)s1 [Control 2Na salt, reference compound]",12.9%,,,
"CCc1nn(Cc2ccc(-c3ccccc3-c3nnn[nH]3)cc2)c(=NC(=O)C2=C(C(=O)O)CCC2)s1 [Compound (2), 2-[[5-Ethyl-3-[2'-(1H-tetrazol-5-yl)biphenyl-4-yl]methyl-1,3,4-thiadiazolin-2-ylidene]aminocarbonyl]-1-cyclopentenecarboxylic acid]",,54.2%,10.8%,12.0%
"CCc1nn(Cc2ccc(-c3ccccc3-c3nnn[nH]3)cc2)c(=NC(=O)C2=C(C(=O)[O-])CCC2)s1.[K+] [Compound B, monopotassium 2-[[5-ethyl-3-[2' -(1H-tetrazol-5-yl)biphenyl-4-yl]methyl-1,3,4-thiadiazolin-2-ylidene]aminocarbonyl]-1-cyclopentenecarboxylate]",,,19.8%,
"CCc1nn(Cc2ccc(-c3ccccc3-c3nnn[nH]3)cc2)c(=NC(=O)C2=C(C(=O)O)CCC2)s1 [Compound A, dipotassium 2-[[5-ethyl-3-[2'-(1H-tetrazol-5-yl)biphenyl-4-yl]methyl-1,3,4-thiadiazolin-2-ylidene]aminocarbonyl]-1-cyclopentenecarboxylate]",23.0%,84.6%,,42.8%
